{
  "source": "patent US9018188B2",
  "about": "“MicroRNA inhibitors” (Ottawa Hospital Research Institute, priority 2011, dated 2015)",
  "assay_type_in_all_cases": "in vivo, mouse",
  "key": {"Fndc5": {"test_system": "Fndc5", "assay": "qRT-PCR of Fndc5 in ASO treated muscles", "conditions": "both RD and HFD conditions", "procedure": "(§1) Normalized UCP1 levels were calculated based on the densitometry analysis of the UCP1 immunoblot and the α-Tubulin immunoblot. The interscapular brown adipose tissue (iBAT) were included as a control. Asterisk denotes the loading of the iBAT lanes on the UCP1 immunoblot was 1/100 of other lanes to avoid overloading. (B) Immunohistochemistry (IHC) of UCP1 protein reveal miR-133 antagonism induced beige adipocytes within inguinal and epididymal white adipose tissues. […] Error bars: S.E.M., asterisk: significant pair-wise comparison by t-test, *: p≦0.05, **: p≦0.01, ***: p≦0.001.\nTotal RNA was extracted from cells by TRIzol or Arcturus® PicoPure® RNA Isolation Kit (Applied Biosystems) following manufactures' recommendations. For RT-qPCR of mRNAs, total RNAs were reverse transcribed into cDNAs by SuperScript III (Invitrogen) and a mixture of oligodT18-20 primers and random hexamers. microRNA RT-qPCRs were performed as previously described (Shi and Chiang, 2005)."}, "Ucp1": {"test_system": "Ucp1", "assay": "UCP1 immunoblot in inguinal and epididymal white adipose tissues", "procedure": "as §1\nThe following antibodies and dilutions were used: anti-Prdm16 antibody (generated in Dr. Patrick Seale's laboratory), 1:5,000 dilution; anti-Perilipin A antibody (Vala Sciences), 1:5,000 dilution; anti-Ucp1 antibody (Ab10983, Abeam), 1:1,000 dilution (FIGS. 4B, 5A, 7A); anti-Ucp1 antibody (Calbiochem), 1:1,000 dilution (FIG. 8C); anti-Ucp3 antibody (Ab3477, Abeam), 1:1,000 dilution; anti-Pgc1α antibody (Abeam), 1:1,000 dilution; anti-pan myosin heavy chain (MyHC) antibody (Developmental Studies Hybridoma Bank), 1:500; anti-DsRed (tdTomato) antibody (Ablab), 1:500; anti-α-Tubulin antibody (Sigma-Aldrich), 1:10,000 dilution."}, "[1]": {"assay": "Body weight and fat depot weights after ASO treatment during TA muscle regeneration", "procedure": "Treated and control C57BL/6 male mice were raised on either RD or HFD in individual cages at 22° C. (n=5 per treatment per diet group). In both diet groups, miR-133 ASO treated mice were obviously leaner than the control mice at 4-month after treatment (FIG. 6A).\nTo induce brown adipocytes in vivo, 10 mg/mL Cardiotoxin solution (50 μl) was intramuscularly injected into TA muscles of 10-week old Pax7-CreER/R26R-tdTomato mice (FIG. 4) or C57BL/6 mice (FIG. 5 and FIG. 6). Alternatively, frozen injury was performed by applying liquid nitrogen cooled tweezers tips directly onto the anterior sides of TA muscles. After 3 days, 20 μg of miR-133 antagomiR or control antagomiR in saline (50 μl) was intramuscularly injected into the same injured TA muscles (on right hindlimbs). To test efficacy of miR-133 ASO in intact muscles, saline, instead of Cardiotoxin, was injected to TA muscles before miR-133 ASO administration (FIGS. 4A, 4B). miR-133 antagomiR and scramble antagomiR were designed as previously described (Krutzfeldt et al., 2005)."}, "let-7a microRNA": {"test_system": "let-7a microRNA", "assay": "RT-qPCR of let-7a expression after intramuscular ASO injection (specificity)", "conditions": "intramuscular administration", "excerpt": "To investigate miR-133 function in brown adipose determination of satellite cells in vivo, Applicant synthesized miR-133 antagomiR (miR-133 antisense oligonucleotide (ASO)) with an antisense sequence to both miR-133a and miR-133b, as well as a control “antagomiR” (control ASO) with the same chemical modifications and not antisense to any mouse gene or EST sequence (see Experimental Procedures). Applicant performed lineage tracing to distinguish effects of miR-133 ASO on satellite cells versus other cell types. Six week old Pax7-CreER; R26R-tdTomato mice were treated with tamoxifin as before (5 consecutive daily injections), then aged to 10 weeks of age prior to initiating the experiment. Control ASO versus miR-133 ASO were injected into tibialis anterior (TA) muscles 3 days following saline injection (quiescent state) or cardiotoxin injection (to induce activation). After one month, RT-qPCR was performed using RNA isolated from several tissues to evaluate the efficacy and scope of miR-133 ASO administration.\nTo induce brown adipocytes in vivo, 10 mg/mL Cardiotoxin solution (50 μl) was intramuscularly injected into TA muscles of 10-week old Pax7-CreER/R26R-tdTomato mice (FIG. 4) or C57BL/6 mice (FIG. 5 and FIG. 6). Alternatively, frozen injury was performed by applying liquid nitrogen cooled tweezers tips directly onto the anterior sides of TA muscles. […]"}},
  "data": [
    {"substance": "*mA*mUmAmGmCmUmGmGmUmUmGmAmAmGmGmGmGmAmC*mC*mA*mA*mAChl [miR-133 ASO]", "values": [
      {"measurement": "expression of Fndc5 compared to control muscles", "setting": "Fndc5", "value": "increased"},
      {"measurement": "effect on UCP1 in white adipose tissues", "setting": "Ucp1; C57BL/6 mice fed with a high fat diet (HFD)", "value": "not present"},
      {"measurement": "UCP1 in inguinal and epididymal white adipose tissues", "setting": "Ucp1; C57BL/6 mice fed with a regular diet (RD), CTX", "value": "increase"},
      {"measurement": "gain in body weight", "setting": "[1]; 4-month period after ASO administration, RD or HFD, C57BL/6 male", "value": "reduced gain in body weight"},
      {"measurement": "igWAT and epiWAT weights", "setting": "[1]; mouse, in vivo", "value": "significant reduction"},
      {"measurement": "mass of iBAT depots and treated TA muscles", "setting": "[1]; mouse, in vivo", "value": "unaffected"},
      {"measurement": "let-7a microRNA expression", "setting": "let-7a microRNA", "value": "no effect"}
    ]}
  ]
}
